Measured values from PubChem BioAssay (NCI).
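Values below derive from 48-hour exposures of cells grown in 96-well plates, with endpoints linearly interpolated between the two concentrations bracketing the appropriate inhibition level. GI50 is the concentration that inhibits growth by half. TGI is the concentration that stops growth completely.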

Legend:
Experiment in all cases: growth of human tumour cells (NCI), 48 h
SF-268 CNS = test system: SF-268 CNS
OVCAR-3 ovarian = test system: OVCAR-3 ovarian
NCI/ADR-RES ovarian = test system: NCI/ADR-RES ovarian
HCT-116 colon = test system: HCT-116 colon
CAKI-1 renal = test system: CAKI-1 renal
UACC-62 melanoma = test system: UACC-62 melanoma
SK-MEL-2 melanoma = test system: SK-MEL-2 melanoma
HCT-15 colon = test system: HCT-15 colon
TK-10 renal = test system: TK-10 renal
OVCAR-4 ovarian = test system: OVCAR-4 ovarian

| SMILES | TGI (SF-268 CNS) [µM] | TGI (OVCAR-3 ovarian) [µM] | TGI (NCI/ADR-RES ovarian) [µM] | TGI (HCT-116 colon) [µM] | TGI (CAKI-1 renal) [µM] | TGI (UACC-62 melanoma) [µM] | TGI (SK-MEL-2 melanoma) [µM] | TGI (HCT-15 colon) [µM] | GI50 (TK-10 renal) [µM] | TGI (TK-10 renal) [µM] | GI50 (SF-268 CNS) [µM] | GI50 (OVCAR-3 ovarian) [µM] | GI50 (NCI/ADR-RES ovarian) [µM] | GI50 (UACC-62 melanoma) [µM] | GI50 (SK-MEL-2 melanoma) [µM] | GI50 (HCT-15 colon) [µM] | GI50 (OVCAR-4 ovarian) [µM] | TGI (OVCAR-4 ovarian) [µM] | GI50 (HCT-116 colon) [µM] | GI50 (CAKI-1 renal) [µM] |
| --- | --- | --- | --- | --- | --- | --- | --- | --- | --- | --- | --- | --- | --- | --- | --- | --- | --- | --- | --- | --- |
| N[C@H]1CCC[C@@H](O)C1O (some centres undefined) | > 100 | > 100 | > 100 | > 100 | > 100 | > 100 | > 100 | > 100 | – | – | – | – | – | – | – | – | – | – | – | – |
| CC(C)(C)OC(=O)NCCCCCCCCCn1c2c(c3ccccc3c1=O)C(=O)c1ccccc1-2 | > 100 | > 100 | > 100 | – | – | 40.7 | 71.1 | > 100 | 17.4 | 45.8 | 32.6 | 29.2 | 43.5 | 17.3 | 27.9 | > 100 | > 100 | > 100 | – | – |
| OCc1c(-c2cccs2)oc(-c2cccs2)c1CO | > 100 | > 100 | > 100 | > 100 | 94.9 | > 100 | – | > 100 | 10.2 | 56.7 | 35 | 48.1 | 40.1 | 35.3 | – | 40.1 | > 100 | > 100 | 44.1 | 38.2 |
| O=C(Nc1cc(Cl)c(I)c(Cl)c1)C(F)(F)F | > 100 | 81.2 | > 100 | 71.2 | 56.5 | 48.9 | – | 45.9 | – | – | – | – | – | – | – | – | – | > 100 | – | – |
| CN(c1cccc(C(=O)O)c1)c1cc(O/N=[N+](\[O-])N(C)C)c([N+](=O)[O-])cc1[N+](=O)[O-] | > 100 | > 100 | > 100 | > 100 | > 100 | > 100 | > 100 | > 100 | > 100 | > 100 | 55.5 | > 100 | > 100 | > 100 | > 100 | > 100 | – | – | > 100 | > 100 |
| COc1ccc(CCN2CCCn3c2nc2ccccc2c3=O)cc1 | > 100 | 0.136 | – | > 100 | > 100 | > 100 | – | > 100 | – | > 100 | 1.16 | 0.0328 | 0.0432 | 0.185 | – | 0.0444 | 0.353 | > 100 | 0.0493 | 0.252 |
| Cc1nc(-n2nc(-c3ccccc3)cc2-c2ccccc2)sc1C(=O)CC(=O)C(=O)Nc1ccc(Cl)c(Cl)c1 | > 100 | > 100 | – | > 100 | > 100 | > 100 | > 100 | > 100 | – | > 100 | – | – | – | – | – | – | – | > 100 | – | – |
| CC1(Cl)C(=O)NC(=O)N([C@H]2C[C@H](O)[C@@H](CO)O2)C1N=[N+]=[N-] (some centres undefined) | > 100 | > 100 | – | > 100 | > 100 | > 100 | > 100 | > 100 | – | > 100 | – | – | – | – | – | – | – | > 100 | – | – |
| N.N.N.N.N#N.N#N.[Cl-].[Os+6] | > 100 | > 100 | – | > 100 | > 100 | > 100 | > 100 | > 100 | > 100 | > 100 | > 100 | > 100 | – | > 100 | > 100 | > 100 | > 100 | > 100 | > 100 | > 100 |
| COc1ccc2c(=O)c(-c3cc(OC)c(OC)cc3OC)coc2c1 | > 100 | 15.3 | – | > 100 | > 100 | > 100 | > 100 | > 100 | – | > 100 | – | – | – | – | – | – | – | > 100 | – | – |
| O=C(c1ccccc1)c1nc2c(Cl)ccc(Cl)c2cc1C(Br)Br | 2.96 | 3.15 | – | 1.56 | 3.51 | 3.01 | 4.34 | 2.88 | – | 2.81 | – | – | – | – | – | – | – | 3.48 | – | – |
| CN(C)CCNC(=O)c1ccc2c(c1)oc1cc3ccccc3c(=O)n12 | 31.7 | 30.4 | 34.5 | 29.4 | 25.4 | 33.8 | 50.5 | 31.4 | 12.9 | 31.4 | 15.4 | 13.2 | 18.6 | 17.4 | 28.7 | 12.8 | – | – | 16 | 10.8 |
| Cn1c(=O)nc2n(-c3ccc(Br)cc3)c3ccccc3nc-2c1=O | 31 | 7.6 | – | 16.3 | 33 | 3.01 | 28.5 | 14.7 | – | 32.8 | – | – | – | – | – | – | – | 14.6 | – | – |
| CCCCC[C@@H]1CCCC2NC(CCCCCO[Si](c3ccccc3)(c3ccccc3)C(C)(C)C)CCC21 (some centres undefined) | 38.2 | 30.7 | – | 23.7 | 29 | 34.9 | 31 | 25.7 | – | 34.8 | – | – | – | – | – | – | – | 21 | – | – |
